Assay results taken from patent publication US9532569B2 (INSTITUT NATIONAL DE LA RECHERCHE AGRONOMIQUE, priority 2012, dated 2017).

What was measured:
[1] = system: Orobanche cumana; assay: Germinative activity on parasitic plants; assay type: in vivo; settings: counted after 4 days
Procedure: (§1) In this example, the germinative activity of the compounds in accordance with the invention (IIa) and (IIIb) and of the comparative compound GR24 was evaluated on the parasitic plants: Orobanche cumana, Orobanche minor, Striga hermonthica, Phelipanche ramosa (pv T and pv C).
(§2) The test protocol used was the following.
(§3) Seeds of Orobanche cumana Wallr. were collected from broomrapes parasitizing sunflower (Helianthus annuus L.), at Longeville-sur-mer, France, in 2009; seeds of clover broomrape (Orobanche minor Sm.) from a parasite of red clover (Trifolium pratense L.) were obtained from Professor K. Yoneyama (Utsunomiya University, Japan).
(§4) The seeds are stored dry in the dark at 25° C.
(§5) The compounds to be studied were resuspended in acetone at 10 mmol·l^−1, then diluted with water to 1 mmol·l^−1 (water/acetone; v/v; 99/1). Dilutions of 1×10^−3 mol·l^−1 to 1×10^−15 mol·l^−1 were then prepared in a water/acetone mixture (v/v; 99/1). Seeds of parasitic plants were surface-sterilized according to the protocol described in the publication by Vieira Dos Santos et al. (2003), then resuspended in sterile water (10 g·l^−1) and distributed on a 96-well plate (in a proportion of 50 μl, i.e. approximately 100 seeds per well). After preconditioning (7 days, 21° C., in the dark, plate hermetically sealed, except for the seeds of S. hermonthica, which were preconditioned at 30° C.), the compounds to be studied were added and the volumes adjusted to 100 μl with water (water/acetone; v/v; 999/1).
(§6) In a plate, a range of concentrations from 10^−13 mol·l^−1 to 10^−6 mol·l^−1 was applied for GR24 and (IIa) and from 10^−12 to 10^−5 mol·l^−1 for (IIIb). Controls were carried out with a water/acetone mixture (v/v; 999/1) and without seeds. The plates were incubated so as to allow germination (21° C., in the dark or 30° C. for Striga hermonthica.). After 4 days, the seeds which had germinated were counted under a stereomicroscope (SZX10, Olympus). The seeds were considered to have germinated when the radicle was sticking out of the seed tegument. Each germination test was repeated at least 3 times. For each compound tested, dose-response curves (g=f(c), where g is the germination percentage and c the concentration (mol·l^−1)), and the EC50 (median effective concentration) were modeled on the basis of a 4-parameter logistic curve calculated with SigmaPlot® 10.0.
(§7) The percentages of maximum germination induced by the compounds tested for each parasitic plant were determined.

[2] = system: Orobanche minor; assay: Germinative activity on parasitic plants; assay type: in vivo; settings: counted after 4 days
Procedure: as §1, §2, §3, §4, §5, §6, §7

[3] = Stability in aqueous medium (UPLC, % nondegraded compound); assay type: physicochemical; settings: second experiment, longer incubation times; 50 μg/ml in methanol/water: 1/4, pH 6.7, 21° C.; FIG. 2
Procedure: The stability in aqueous medium of the compound (IIa) according to the invention and that of GR24 as comparative compound was evaluated in the following way.
Each compound was diluted in acetone (1 ml), then 50 μl of each solution were diluted with methanol (175 μl) and water (750 μl) so as to obtain a compound concentration of 50 μg/ml.
The aqueous solution thus obtained was incubated at 21° C. in HPLC vials.
Indanol (25 μl of a solution at 1 mg/ml in acetone) was added to each solution in order to serve as an internal standard.
The degradation of each compound over time was monitored by analysis of samples taken from the solution at various time intervals, by Ultra Performance Liquid Chromatograpy (UPLC) by means of an Acquity UPLC HSS C18 column (1.8 μm, 2.1×50 mm), eluted first of all with a solution of acetonitrile at 5% in water containing 0.1% of formic acid, for 0.5 min, then with a gradient of 5% to 100% of acetonitrile in water containing 0.1% of formic acid, for 6.5 min, and with 100% of acetonitrile containing 0.1% of formic acid for 3 min. The column was maintained at a temperature of 40° C., with a flow of 0.6 ml/min.
The compounds eluted from the column were detected with a photodiode array detector.
The relative amount of nondegraded compound in the solution was determined by comparison with the internal standard.
In a second experiment, the stability in aqueous medium of the compounds (IIa) and (IIIb) according to the invention, and that of GR24 as comparative compound, was evaluated according to the protocol described above.

[4] = system: Striga hermonthica; assay: Germinative activity on parasitic plants; assay type: in vivo; settings: counted after 4 days, 30° C.
Procedure: as §1, §2
Seeds of Striga hermonthica (Del.) Benth were collected at Gadarif, Eastern Sudan, in 1999.
as §4, §5
as §6, with “The seeds were considered to have germinated when the radicle was sticking out of the seed tegument. Each germination test was repeated at least 3 times.” left out
as §7

[5] = system: Phelipanche ramosa pv C; assay: Germinative activity on parasitic plants; assay type: in vivo; settings: counted after 4 days
Procedure: as §1, §2
(§8) Two populations of Phelipanche ramosa were used in this study, pathovar (pv) C and T, described in the publication by Benharrat et al. (2005). Seeds of Phelipanche ramosa pathovar C were collected at Saint Martin de Fraigneau, France, on broomrapes parasitizing winter oilseed rape (Brassica napus L.) in 2005 and seeds of Phelipanche ramosa pathovar T were collected in Sarthe, France, on broomrapes developing on hemp (Cannabis sativa L.) in 2007.
as §4, §5, §6, §7

[6] = system: Phelipanche ramosa pv T; assay: Germinative activity on parasitic plants; assay type: in vivo; settings: counted after 4 days
Procedure: as §1, §2, §8, §4, §5, §6, §7

[7] = system: pea rms4 mutant; assay type: in vivo, Pisum sativum L.
Procedure: The protocol used is in accordance with that described in example 4 above. Compound concentrations of 100 nM and 3 μM were tested. A negative control consisting of the solvent alone (<<CTL 0>>) was also tested.
The number of dead buds following the treatment with 3 μM of compound was also determined after 8 days of treatment (on groups of 48 plants).

COC(=O)/C=C/C(C)=C/OC1OC(=O)C(C)=C1C (centres unmarked) [Compound (IIIb)]
Percentage of maximum germination induced [1]: no (no significant germination compared to the negative control (<2%)) | Percentage of maximum germination induced [2]: 60 ± 6% | chemical stability in aqueous solution (% of nondegraded compound as a function of incubation time) [3]: even better than that of the compound (IIa) | Percentage of maximum germination induced [4]: no (no significant germination compared to the negative control (<2%)) | Percentage of maximum germination induced [5]: no (no significant germination compared to the negative control (<2%)) | Percentage of maximum germination induced [6]: 88 ± 6% | length of bud/branch at node 3 (toxicity) ([7]; 100 nM and 3 μM, 8 days after treatment at node 3, FIG. 15): absence of effects of the compounds in accordance with the invention (IIa) and (IIIb) compared with a negative control, and between the two treatment doses | number of dead buds after treatment ([7]; 3 μM, 8 days of treatment, groups of 48 plants, FIG. 16): did not cause the death of any bud
